Source: patent US10695330B2, “Methods of treatment” (Global Blood Therapeutics, Inc., priority 2015, dated 2020)

What was measured:
macrophages = assay: Production of TNF-α and IL-6 by macrophages; assay type: cell-based; conditions: in vitro
Excerpt: Reactive oxygen species (ROS) released from activated white blood cells cause lung injury as well as fibrotic changes in patients with IPF. […] Thus, the compounds described herein could also provide a method to inhibit the adverse effects of inflammation in a patient. Reduction in systemic pro-inflammatory cytokines (tumor necrosis alpha and interleukin-6) also has the potential to exert a broad anti-inflammatory effect which would supplement the beneficial effect of alleviation of hypoxemia via increased hemoglobin-O2 affinity.

[1] = test system: mice with bleomycin-induced fibrosis; assay: Bleomycin induced mouse model of hypoxemia and pulmonary fibrosis; assay type: in vivo
Method: Forty-eight C57B/L6 male mice aged 7-8 weeks were obtained from Simonsen Laboratory, Gilroy, Calif. The mice were ear tagged and weighed prior to the start of the study. The animals were distributed into four groups with twelve animals in each group. Body weights of all mice were recorded daily during the study. Animals in groups 2, 3 and 4 were administered 3 U/kg bleomycin sulfate USP (Teva Pharmaceuticals) via oropharyngeal route […] (see Walters, D. M. and S. R. Kleeberger (2008). “Mouse models of bleomycin-induced pulmonary fibrosis.” Curr Protoc Pharmacol Chapter 5: Unit 5 46.) Animals in group 1 were administered normal saline via oropharyngeal route.
Compound 1 (formulated in dimethylacetamide: polyethylene glycol 400 (PEG400): 40% cavitron at a 1:5:4 ratio) was administered at either low dose (first day 50 mg/kg followed by 40 mg/kg daily) or high dose (first day 150 mg/kg followed by 85 mg/kg daily) via oral gavage to bleomycin treated mice once daily from day 8 to day 15. Animals in group 1 were administered vehicle via oral gavage. The dosing volume was 200 μL. The study animals were sacrificed on day 15 at 4 hours post final dose.
Samples for hemoximetry and pharmacokinetics (PK) were taken 4 hours following the last dose of the dosing regimen. BAL fluid was collected from the lungs of the animals by lavaging the lung with 1 ml Hanks balanced salt media (HBSS). Lungs were harvested from each animal and weighed. They were then inflated by ˜0.5 mL of 10% NBF and fixed in a formalin container for subsequent histopathological analysis.
Hypoxia is a feature of IPF, and oxygen saturation measurements are often used clinically to evaluate the presence and severity of hypoxia. Responses to hypoxia in mice treated with Compound 1 were first evaluated by measuring arterial oxygen saturation (SaO2). On day 7 and 14 after bleomycin or saline instillation, 50 μL of arterial blood from the tail artery were used for measurement of arterial oxygen saturation (SaO2) using whole blood GEM OPL co-oximeter (Instrumentation Laboratory, MA). An additional aliquot of 100 μL of blood were collected from tail artery and arterial blood gases using the i-STAT Handheld Blood Analyzer (ABBOTT) were measured using CG4+ cartridges. For each mouse, SaO2 and arterial oxygen tension (pO2) were measured. […] In contrast, arterial oxygenation levels of vehicle treated mice further declined throughout the study (FIG. 4C). The arterial blood gases (ABG) were also analyzed on day 7 and day 14 (FIG. 4C). Data are expressed as means±SEM. […] In vehicle-treated bleomycin mice the pO2 reached a further decline at day 14.
In this bleomycin model, mice develop extensive pulmonary fibrosis as well as pulmonary inflammation; thus, the effect of Compound 1 treatment on the phenotype of pulmonary inflammatory cells was examined. The BAL fluid was centrifuged at 1,000 rpm at 4° C. for 5 minutes. The BAL cell pellets were suspended in 2 mls of 1× Pharmalyse buffer (BD Bioscience) to lyse the RBCs. PBS+2% FBS were added to stop the lysis reaction and cells centrifuged again. Leukocytes in the cell pellet were counted using a hemocytometer and the trypan blue exclusion method.
Pulmonary fibrosis was induced by administering mice a single dose of bleomycin. Collagen content of was determined by quantifying total soluble collagen in the BALF supernatant using the Sircol collagen dye binding assay according to the manufacturer's instructions (Biocolor Ltd, Carrick Fergus, UK).
Lungs were harvested from each animal and weighed at Day 15.
The histopathological analysis was conducted at Seventh Wave Laboratories, Chesterfield, Mo. The lung samples were processed and embedded with all lobes from each mouse in one paraffin block. Coronal sections through the four major lobes were stained with Masson's Trichrome. For each animal, consecutive lung fields were examined in a raster pattern using a 20× objective lens and a 10× or 40× ocular lens (200× or 800×). […]

Hb = molecular target: T1, Hb (Mus musculus, UniProt P01942); assay: Tolerance to hypoxia mouse model: PK/PD (Hb occupancy, hemoximetry of blood from dosed mice); assay type: in vivo; conditions: healthy mice
T1 construct: from tissue; host or cells: whole blood (red blood cells) of dosed C57BL / C57BL/6J mice
T1 sequence (P01942 2-142 limits assumed): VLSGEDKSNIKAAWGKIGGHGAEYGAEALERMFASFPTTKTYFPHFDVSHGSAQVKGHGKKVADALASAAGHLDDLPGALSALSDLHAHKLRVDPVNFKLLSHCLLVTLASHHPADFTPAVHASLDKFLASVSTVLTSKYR
T1 sequence (P02088 2-147 partner limits assumed): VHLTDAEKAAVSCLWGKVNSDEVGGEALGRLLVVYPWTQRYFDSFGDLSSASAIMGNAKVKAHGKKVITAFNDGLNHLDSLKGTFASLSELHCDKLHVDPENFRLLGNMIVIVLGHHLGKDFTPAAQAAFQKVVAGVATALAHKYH
Method: Male, C57BL mice were fitted with a dorsal skinfold window chamber for direct visualization of an intact microvascular bed (Yalcin & Cabrales 2012). After the window chamber was implanted, the animals were left to recover for at least 2 days, before undergoing surgery a second time for arterial (carotid) catheter implantation (PESO tubing). After two day of recovery, mice were dosed orally with Compound 1 (70 or 140 mg/kg) or vehicle only and Hb O2 affinity was determined by hemoximetry. Two hours post dose, conscious mice were placed in a restraining tube with a longitudinal slit from which the protruding window chamber provided a microscopic stage for observation. In this setup, gas flow rate (0.2 L/min) into the tube is diffused by a cotton filter barrier. Baseline measurements for normoxia (21% O2) were completed within an hour of restraining mice. The animals were then exposed to stepwise hypoxia by decreasing the O2 concentration to 15, 10 and 5%. Animals were kept at each hypoxic level for 30 min. Mice were allowed 15 min of acclimatization at each new hypoxic level before measurements were taken. During hypoxia, changes in systemic and microvascular hemodynamics, blood gases, blood lactate, tissue partial pressure of O2 (PO2), tissue hypoxia and tolerance to hypoxia were evaluated. At each time point, mice with adequate systolic blood pressure (BP) were counted as survived and mice with severe hypotension (BP≤60 mmHg) were counted as non-survived and were euthanized.
Oxygen equilibrium curves for mice blood were obtained by deoxygenation of O2-equilibrated samples in a Hemox buffer at 37° C., using a Hemox Analyzer (TCS Scientific Corporation, New Hope, Pa.). […] The absorbance at wavelengths that correspond to the isosbestic point (570 nm) and deoxy Hb (560 nm) was recorded as a function of the sample O2 tension (pO2). During deoxygenation, the pO2 and percent O2 saturation values were collected to obtain the OECs and the p50 values (partial pressure of O2 at which Hb is 50% saturated with O2). p50 values were calculated using a non-linear regression analysis. […]

In the case of `O=Cc1c(O)cccc1OC[C@@H]1CCCCN1C(=O)c1cccnc1` [Compound 1, (S)-2-hydroxy-6-((1-nicotinoylpiperidin-2-yl)methoxy)benzaldehyde], the “anti-inflammatory activity (TNF-α and IL-6 production)” value (macrophages) is reported as “anti-inflammatory activity”, the “arterial oxygen tension (pO2)” value ([1]; day 14) is reported as “tendency for an increase pO2 or prevention of further decline of pO2” and the “arterial oxygen saturation (SaO2)” value ([1]; day 14, after seven consecutive days of treatment, low and high dose) is reported as “return toward control values”. For the same compound, the “improvement of overall Ashcroft scores” value ([1]; day 15, P<0.01) was “approximately 50%”, the “collagen protein (total soluble collagen in BALF supernatant, Sircol)” value ([1]; day 15, P<0.05) was “significant reduction in collagen protein in the lungs” and the “total inflammatory cells recovered in BAL fluid” value ([1]; day 15, P<0.05) was “significant reduction in total inflammatory cells recovered in BAL fluid”. The lung weight ([1]; day 15, vs bleomycin vehicle control, P<0.01) was “significantly heavier than lungs from Compound 1-treated mice”, the “collagen deposition (Masson's trichrome histology)” value ([1]; day 15 lung sections, low and high dose) was “diminished collagen deposition” and the “calculated Hb occupancy” value (Hb; 70 mg/kg oral) was about 30%. The “calculated Hb occupancy” value (Hb; 140 mg/kg oral) was about 60% and the “Hb O2 affinity (left-shift in the OEC) in whole blood from dosed mice” value (Hb; 70 or 140 mg/kg oral, vs vehicle) was “dose-dependent increase in Hb O2 affinity relative to control”.
